Measurements from US8299252B2, “Pyrazolopyridine and pyrrolopyridine multikinase inhibitors” (Chugai Seiyaku Kabushiki Kaisha, priority 2005, dated 2012).
Values after ≈ are worked out from the molar mass of the structure shown.

Experiments:
[1] = tested on: human colon cancer cell line HCT116 cells; assay: Cell proliferation inhibitory activity, HCT116; format: cell-based; settings: Homo sapiens, HCT-116, read-out: 50% proliferation inhibitory concentration (IC50 value) HCT116; HCT116, 72 hours, WST-8
Experimental: (§1) The compounds according to the present invention were measured for cancer cell proliferation inhibitory activity and human umbilical vein endothelial cell (HUVEC) proliferation inhibitory activity.
(§2) Test compounds were serially diluted with dimethyl sulfoxide and then diluted 50 times with Ca^2+- and Mg^2+-free phosphate-buffered saline, and 20 μL of each of the resulting solution was dispensed into a 96-well plate. […] Each cell suspension contains approximately 3000 cells/180 μL. These cell suspensions were dispensed to the plate containing the test compounds at 180 μL/well and incubated in a 5% carbon dioxide gas incubator at 37° C. for 72 hours. 20 μL of WST-8 (HCT116, Dojin) or WST-1 (HUVEC, Roche Diagnostics) was added to each well, and absorbance at 450 nm (reference wavelength: 650 nm) was measured.

[2] = tested on: tube formation of human-derived vascular endothelial cells (HUVEC); assay: Tube formation inhibition test (angiogenesis assay kit, KURABO); format: cell-based; settings: 264 h, final concentration 6.4 nM, 11 days, read-out: Tube formation inhibition ratio (%)
Experimental: The formed tubes were stained with a tube staining kit CD31 (KURABO). The stain image of each well was taken under a microscope, stored in an image file, and measured for the tube formation area using angiogenesis quantitative analysis software of KURABO. The inhibition ratio % of each test compound added to the well was calculated, provided that the ratio of the reference was 100%.

[3] = tested on: human umbilical vein endothelial cells (HUVEC), VEGF-independent proliferation; assay: VEGF-independent HUVEC proliferation inhibition assay; format: cell-based; settings: read-out: 50% proliferation inhibitory concentration (IC50 value) HUVEC (VEGF-independent), vascular endothelial cell growth-promoting agent and heparin, 72 hours, WST-1
Experimental: as §1, §2

[4] = tested on: human colon cancer cell line HCT116 cells; assay: Antitumor test, HCT116 transplanted subcutaneously in nude mice; format: in vivo, female Balb/c nude mouse; settings: once a day for 12 days; for Tumor growth inhibition ratio (%): last administration day; for Decrease ratio in body weight (%): maximum decrease
Experimental: A cell suspension of human colon cancer cell line HCT116 cells was prepared using Hanks's solution, and 5.0×10^6 cells thereof were transplanted subcutaneously into the flank of each female Balb/c nude mouse. Oral administration of the test compound (once a day for 12 days) was started when the transplanted tumor volume reached 200 to 250 mm^3. The tumor volume was calculated by the expression: 0.5×(minor axis)^2×(major axis). The tumor growth inhibition ratio of tumor growth of the test compound to tumor growth of the reference group was determined.

[5] = biological target: T1, FLT3 intracellular domain protein (Homo sapiens, UniProt P36888); assay: Flt3 enzyme inhibition test (HTRF); format: biochemical; settings: phosphorylation of biotinylated peptide
T1 sequence (P36888 564-993 limits assumed): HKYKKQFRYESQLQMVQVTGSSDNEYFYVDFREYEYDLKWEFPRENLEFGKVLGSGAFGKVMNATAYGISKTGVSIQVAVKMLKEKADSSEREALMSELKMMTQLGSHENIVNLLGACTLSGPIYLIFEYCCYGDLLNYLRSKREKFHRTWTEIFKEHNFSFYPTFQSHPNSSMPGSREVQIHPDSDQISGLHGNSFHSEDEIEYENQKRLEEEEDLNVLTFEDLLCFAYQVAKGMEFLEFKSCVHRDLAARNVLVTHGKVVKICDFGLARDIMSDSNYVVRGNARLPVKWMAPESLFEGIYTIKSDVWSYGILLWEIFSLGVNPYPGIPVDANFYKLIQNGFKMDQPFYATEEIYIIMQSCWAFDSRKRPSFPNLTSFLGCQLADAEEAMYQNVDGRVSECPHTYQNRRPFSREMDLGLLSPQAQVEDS
Experimental: The FLT3 inhibitory activity was measured by the activity of FLT3 intracellular domain protein inhibiting for phosphorylation of a biotinylated peptide ([…]).

[6] = tested on: human umbilical vein endothelial cells (HUVEC), VEGF-dependent proliferation; assay: VEGF-dependent HUVEC proliferation inhibition assay; format: cell-based; settings: read-out: 50% proliferation inhibitory concentration (IC50 value) HUVEC (VEGF-dependent), 20 ng/mL of VEGF, 72 hours, WST-1
Experimental: as §1, §2

[7] = biological target: KDR intracellular domain protein (Homo sapiens, UniProt P35968); assay: KDR enzyme inhibition assay (biotinylated peptide phosphorylation, HTRF); format: biochemical; settings: phosphorylation of biotinylated peptide
Experimental: (§3) The compounds according to the present invention were measured for Raf-1 and KDR enzyme inhibitory activities.
(§4) The Raf-1 inhibitory activity was measured by the activity of Raf-1 protein for inhibiting phosphorylation of MEK-1 protein having six histidine residues (His6) fused to the N-terminus thereof. […] The KDR inhibitory activity was measured by the activity of KDR intracellular domain protein for inhibiting phosphorylation of a biotinylated peptide ([…]).

[8] = Solubility in fasted state simulated intestinal fluid; format: physicochemical; settings: pH 6.5, fassif, kinetic from dmso stock, fasted state simulated intestinal fluid (pH6.5), 37° C.
Experimental: 2 μL of each dimethyl sulfoxide solutions containing test compounds were dispensed into wells of a 96-well plate, and 200 μL of fasted state simulated intestinal fluid (pH6.5) was added to each well. The plate was shaken at 37° C. for 20 hours. The solution was filtered through a membrane filter, and 101 μL of the filtrate was transferred to a UV plate, followed by addition of 100 μL of a solution mixture of ethanol:water=2:1 thereto. Separately, as a standard, 101 μL of a solution prepared by 2 μL of a dimethyl sulfoxide solution, 4 μL of dimethyl sulfoxide, 400 μL of ethanol, and 200 μL of water was transferred to a UV plate, and 100 μL of fasted state simulated intestinal fluid (pH6.5) was added thereto. The solubility was calculated by the following expression: Solubility=[(absorbance of test solution)−blank]/[(absorbance of standard solution)−blank]×165 μM (165 μM is the concentration of the standard solution) Composition of the fasted state simulated intestinal fluid (pH6.5)
The composition was prepared in compliance with the description in E. Galia, et al., Pharm. Res. 1998, 698.
Taurocholic acid (161 mg), L-α-phosphatidylcholine (59 mg), potassium dihydrogen phosphate (0.39 g), and potassium chloride (0.77 g) were added to about 90 mL of water. The resulting solution was adjusted to a pH of 6.5 with a sodium hydroxide aqueous solution and then diluted to a volume of 100 mL with water. The solution was filtered through a membrane filter.

Raf-1 = Raf-1 (Homo sapiens, UniProt P04049); assay: Raf-1 enzyme inhibition assay (MEK-1 phosphorylation, HTRF); format: biochemical; settings: phosphorylation of His6-MEK-1
Experimental: as §3, §4

[9] = tested on: choroidal neovascularization; assay: Laser coagulation-induced murine choroidal neovascularization model; format: in vivo, C57BL6J mice; settings: for Average FA score: once a day for three days
Experimental: Laser coagulation was performed on two- to three-month-old C57BL6J mice (ten mice per group) by using a 408 nm semiconductor laser (DC-3000, Nidek). Both eyes were each irradiated at three positions with a spot size of 170 μm, an exposure time of 0.02 sec, and an output of 200 mW. The drug was orally administered once a day for three days beginning on the day of the laser coagulation. On the next day of the last administration, the mice were intravenously injected with 7 mg/kg of fluorescein. Five minutes after the injection, three fluorescent fundus images of each eye were taken (TRC-501X, Topcon) and stored in a CCD camera having 640×480 pixels as an image file. The total pixel brightness (0 to 1) in regions where fluorescein leakage was detected was used as an index (FA score) of choroidal neovascularization activity. The FA score was calculated by defining reference values such that the pixel brightness in a capillary region of a non-coagulated site is 0 and the pixel brightness on a main branch of the retinal blood vessel is 1.

Chain of KDR intracellular domain protein (P35968 786-1356 limits assumed): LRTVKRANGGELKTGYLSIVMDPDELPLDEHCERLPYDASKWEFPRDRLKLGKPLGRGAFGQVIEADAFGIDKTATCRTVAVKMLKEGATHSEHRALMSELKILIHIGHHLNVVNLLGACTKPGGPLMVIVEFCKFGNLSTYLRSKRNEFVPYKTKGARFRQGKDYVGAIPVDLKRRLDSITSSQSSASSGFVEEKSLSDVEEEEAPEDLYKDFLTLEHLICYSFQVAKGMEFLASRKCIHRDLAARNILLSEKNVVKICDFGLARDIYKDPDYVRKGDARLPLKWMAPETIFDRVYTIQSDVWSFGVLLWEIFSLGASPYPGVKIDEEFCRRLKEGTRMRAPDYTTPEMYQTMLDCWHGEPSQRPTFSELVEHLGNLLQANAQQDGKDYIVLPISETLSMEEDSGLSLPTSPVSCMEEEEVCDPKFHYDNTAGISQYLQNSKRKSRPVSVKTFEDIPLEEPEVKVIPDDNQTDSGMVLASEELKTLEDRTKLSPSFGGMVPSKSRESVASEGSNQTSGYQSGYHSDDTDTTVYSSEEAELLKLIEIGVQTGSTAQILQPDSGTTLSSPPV
Chain of Raf-1 (P04049 whole entry): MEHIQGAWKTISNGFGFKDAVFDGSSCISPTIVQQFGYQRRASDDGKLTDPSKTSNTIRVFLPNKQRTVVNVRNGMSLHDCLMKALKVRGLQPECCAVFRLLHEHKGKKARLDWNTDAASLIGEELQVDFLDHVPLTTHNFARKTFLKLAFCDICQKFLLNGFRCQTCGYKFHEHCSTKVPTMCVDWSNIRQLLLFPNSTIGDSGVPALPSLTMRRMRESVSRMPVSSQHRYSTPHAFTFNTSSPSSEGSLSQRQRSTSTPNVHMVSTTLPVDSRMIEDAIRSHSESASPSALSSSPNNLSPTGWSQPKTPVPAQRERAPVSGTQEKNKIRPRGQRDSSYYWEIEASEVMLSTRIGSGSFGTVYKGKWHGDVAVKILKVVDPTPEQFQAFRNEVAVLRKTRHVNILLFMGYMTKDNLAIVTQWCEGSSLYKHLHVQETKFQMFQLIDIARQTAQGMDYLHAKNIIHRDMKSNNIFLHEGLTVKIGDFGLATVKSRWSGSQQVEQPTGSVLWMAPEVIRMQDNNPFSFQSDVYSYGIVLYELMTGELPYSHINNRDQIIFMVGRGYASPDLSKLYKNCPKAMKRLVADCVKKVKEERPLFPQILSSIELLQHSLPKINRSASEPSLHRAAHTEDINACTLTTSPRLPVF

SMILES | IC50 [1] | IC50 [5] | IC50 [7] | solubility at 20 h [8] | IC50 (Raf-1) | inhibition at 0.0064 µM [2] | IC50 [3] | Tumor growth inhibition ratio (%) ([4]; 200 mg/kg oral) | Decrease ratio in body weight (%) ([4]; 200 mg/kg oral) | IC50 [6] | Tumor growth inhibition ratio (%) ([4]; 100 mg/kg oral) | Decrease ratio in body weight (%) ([4]; 100 mg/kg oral) | inhibition of the angiogenesis (in words) ([9]; 50 mg/kg) | Average FA score ([9]; 50 mg/kg oral) | Average FA score ([9]; 100 mg/kg oral)
O=C(Nc1ccc(Oc2ccnc3[nH]ccc23)cc1)Nc1ccc(OC2CCOCC2)c(C(F)(F)F)c1 [Compound 7, 1-[4-(1H-Pyrrolo[2,3-b]pyridin-4-yloxy)phenyl]-3-[4-(tetrahydropyran-4-yloxy)-3-(trifluoromethyl)phenyl]urea] | 3200 nM | 6.9 nM | – | – | – | 99% | 860 nM | 97% | 3.6% | 3.9 nM | – | – | – | – | –
O=C(Nc1ccc(Oc2ccnc3[nH]ccc23)cc1)Nc1cc(CCF)cc(C(F)(F)F)c1 [Compound 22, 1-[3-(2-Fluoroethyl)-5-(trifluoromethyl)phenyl]-3-[4-(1H-pyrrolo[2,3-b]pyridin-4-yloxy)phenyl]urea] | 1300 nM | 14 nM | 3.6 nM | 16 µg/mL (≈ 34.9 µM) | 23 nM | 96% | 630 nM | – | – | 5.4 nM | – | – | – | – | –
COCCOc1ccc(NC(=O)Nc2ccc(Oc3ccnc4[nH]ncc34)cc2)cc1C(F)(F)F [Compound 2, 1-[4-(2-Methoxyethoxy)-3-(trifluoromethyl)phenyl]-3-[4-(1H-pyrazolo[3,4-b]pyridin-4-yloxy)phenyl]urea] | – | – | – | – | – | 82% | – | – | – | – | – | – | – | – | –
O=C(Nc1ccc(Oc2ccnc3[nH]ncc23)cc1)Nc1ccc(CCCF)c(C(F)(F)F)c1 [Compound 19, 1-[4-(3-Fluoro-propyl)-3-(trifluoromethyl)phenyl]-3-[4-(1H-pyrazolo[3,4-b]pyridin-4-yloxy)phenyl]urea] | 2400 nM | 18 nM | – | 16 µg/mL (≈ 33.8 µM) | – | 98% | 300 nM | – | – | 1.8 nM | 89% | 4.9% | – | – | –
O=C(Nc1ccc(Oc2ccnc3[nH]ccc23)cc1)Nc1ccc(Oc2ccc(F)cc2)c(C(F)(F)F)c1 [Compound 58, 1-[4-(4-Fluorophenoxy)-3-(trifluoromethyl)phenyl]-3-[4-(1H-pyrrolo[2,3-b]pyridin-4-yloxy)phenyl]urea] | – | – | – | – | – | – | – | – | – | – | – | – | significantly inhibited | 7.127 | 6.664

Further lines, with some results ahead:

IC50 [1] | IC50 [5] | IC50 [7] | solubility at 20 h [8] | IC50 (Raf-1) | SMILES | inhibition at 0.0064 µM [2] | IC50 [3] | Tumor growth inhibition ratio (%) ([4]; 200 mg/kg oral) | Decrease ratio in body weight (%) ([4]; 200 mg/kg oral) | IC50 [6] | Tumor growth inhibition ratio (%) ([4]; 100 mg/kg oral) | Decrease ratio in body weight (%) ([4]; 100 mg/kg oral) | inhibition of the angiogenesis (in words) ([9]; 50 mg/kg) | Average FA score ([9]; 50 mg/kg oral) | Average FA score ([9]; 100 mg/kg oral)
2300 nM | 11 nM | – | – | – | O=C(Nc1ccc(Oc2ccnc3[nH]ccc23)cc1)Nc1ccc(OCCF)c(C(F)(F)F)c1 [Compound 15, 1-[4-(2-Fluoroethoxy)-3-(trifluoromethyl)phenyl]-3-[4-(1H-pyrrolo[2,3-b]pyridin-4-yloxy)phenyl]urea] | 100% | 1200 nM | – | – | 4 nM | – | – | – | – | –
1600 nM | 9.7 nM | – | 14 µg/mL (≈ 29.6 µM) | – | O=C(Nc1ccc(Oc2ccnc3[nH]ccc23)cc1)Nc1ccc(CCCF)c(C(F)(F)F)c1 [Compound 11, 1-[4-(3-Fluoropropyl)-3-(trifluoromethyl)phenyl]-3-[4-(1H-pyrrolo[2,3-b]pyridin-4-yloxy)phenyl]urea] | 82% | 650 nM | – | – | 5.8 nM | 89% | 7.8% | – | – | –
1300 nM | – | – | – | – | O=C(Nc1ccc(Oc2ccnc3[nH]ccc23)cc1)Nc1ccc(CCF)c(C(F)(F)F)c1 [Compound 21, 1-[4-(2-Fluoroethyl)-3-(trifluoromethyl)phenyl]-3-[4-(1H-pyrrolo[2,3-b]pyridin-4-yloxy)phenyl]urea] | 100% | 860 nM | – | – | 4.4 nM | – | – | – | – | –
2100 nM | 3.2 nM | – | – | – | COCCOc1ccc(NC(=O)Nc2ccc(Oc3ccnc4[nH]ccc34)cc2)cc1C(F)(F)F [Compound 1, 1-[4-(2-methoxyethoxy)-3-(trifluoromethyl)phenyl]-3-[4-(1H-pyrrolo[2,3-b]pyridin-4-yloxy)phenyl]urea] | 98% | 2600 nM | – | – | 3.7 nM | – | – | – | – | –
